pEC50: −log10 of the molar value. Counter-ions that a name gives are not always drawn. Like-named read-outs stand apart in the source and are kept apart here.
How the values were obtained:
[1] = system: IL-23p19; experiment: LPS induced IL23p19 in THP-1 cells (with IFNγ primed) assay; assay type: cell-based, Human; conditions: THP-1 cells, IFNγ primed, LPS 1 ug/mL, 18 hours, 10 pt, read-out: IL23-p19 ELISA, THP1-IFNy, LPS, 10 pt EC50
Excerpt: LPS Induced IL23p19 in THP-1 Cells (with IFNγ Primed) Assay
THP-1 Cells (ATCC, Cat#TIB-202), Dimethyl Sulfoxide (DMSO) (Sigma-Aldrich, Cat#D2650), RPMI 1640 (Cellgro, Cat#10-040-CM), Fetal Bovine Serum (Sigma, Cat#F4135), Albumin From Bovine Serum (BSA) (Sigma-Aldrich, Cat#A7906), LPS (Serotype K-235, Sigma, Product Number L 2143), IFNγ (Peprotech, Cat#300-02) Capture antibody: Human IL-23p19 ELISA (e-Bioscience, Cat. #14-7238-85), Detection antibody: Primary Mouse Biotinylated anti-human IL-12(p40/p70) (e-Bioscience, Cat. #13-7129-85), Secondary HRP-conjugated Streptavidin (R&D Systems, Cat#DY998), 1×PBST Washing Buffer (PBS-Tween tablet) (VWR International, Cat#80058-558), ELISA Blocking Buffer (PBS with 1% BSA), ELISA Dilution Buffer (PBS with 1% BSA), 384 Well Flat-Bottom, MaxiSorp Black Immuno Plates (Thermo Scientific, Cat#12-565-346), 384 Well Flat-Bottom, White Tissue Culture Plates (Thermo Scientific, Cat#12-565-343), Super Signal ELISA Pico Chemiluminescent Substrate (Thermo Scientific, Cat#37070), Cell Titer Glo reagent (Promega, Cat#G7573), Positive control, IKK2VI inhibitor (Calbiochem, Cat#401483), AquaMax 4000 plate washer (Molecular Devices), Luminometer, Wallac Victor2 1420 Multilabel Counter.
On day 1, 50K/well THP-1 cells were seeded and primed with IFNγ (50 ng/mL) in 384-well plates for about 18 hours in RPMI media with 10% FBS. On day 2, the compound was serially diluted in DMSO from 5 mM in 3-fold dilutions, and then diluted 1:125 in RPMI media with 10% FBS. 50 μL/well 2× compound was added to 50 μL/well THP-1 cells (with IFNγ primed) in duplicate in 384 well tissue culture plates. The cells were pre-incubated with compound for 1 hour at 37° C., 5% CO2 before addition of 10 μL/well 11×LPS to give a final concentration of 1 ug/mL LPS. Day 3, after stimulation for 18 hours at 37° C., 5% CO2, the assay plate was centrifuged and 70 μL/well supernatant was harvested. IL-23p19 protein in 70 μL/well of supernatant was measured by sandwich ELISA, and 25 μl/well Cell Titer Glo reagent was added to the remaining cells to measure compound toxicity.
Maxisorp immuno ELISA plates were pre-coated with 25 μL/well of anti-IL-23p19 capture antibody (2.5 ug/mL) in PBS overnight at room temperature. After washing with 1× PBST, the plates were blocked using 100 μL/well of 1% BSA in PBS for 2 hours at room temperature. The plates were washed three times with 1×PBST and 70 μL/well supernatant were added. The plates were incubated at room temperature for 2 hours with shaking and washed three times with 1×PBST. 25 μL/well of biotin labeled anti-IL-12(p40/p70) detection antibody (100 ng/mL) in PBS with 1% BSA was added and the plates were incubated at room temperature for 2 hours with shaking. After washing three times with 1×PBST, 25 μL/well of streptavidin-HRP (1:200) in PBS with 1% BSA was added and the plates were incubated at room temperature for 20 minutes with shaking. The plates were washed three times with 1× PBST and 25 μL/well of Super Signal ELISA Pico Chemiluminescent Substrate were added. The plates were read with a luminometer, and the chemiluminescence values were entered into Athena (Rigel) for curve fitting, EC50 calculation, and database storage.

[2] = system: IL-23 (p19/p40); experiment: IL23-p19 ELISA, Dendritic, LPS (compound screening using DC cells); assay type: cell-based, Human; conditions: PBMC-derived DC cells, IFNγ primed, LPS 1 μg/ml, 18 hours, 10 pt, read-out: IL23-p19 ELISA, Dendritic, LPS, 10 pt, EC50
Method: Compound Screening Using DC Cells
Human PBMC cells (400 million) obtained from the vendor were transferred into a T-175 flask containing 15 ml RPMI media (10% FBS) and incubate for 2 hours at 37° C. After 2 hours, the media including floating cells was aspirated out carefully and 12 ml of fresh RPMI media (10% FBS) containing GMCSF (100 ng/ml) and IL4 (20 ng/ml) was added, and the flask was kept in a 37° C. incubator for 7 days.
After 3 days, fresh GMCSF (100 ng/ml) and IL4 (20 ng/ml) were added to the flask and the incubation continued. After 7 days, the fully differentiated cells were harvested by spinning down (1200 rpm/5 min) and aspirating the media. The cells were suspended in fresh RPMI media (10% FBS) containing 50 ng/ml IFNγ (1000 U/ml) and then plated (50K/well in 100 μl) onto a white clear bottom 96 well plate and left in a 37° C. incubator for 24 hours.
After 24 hours incubation, 100 μl of RPMI media was added containing 2× concentrated test compound per well to the above cell-culture media (final concentration becomes 1×) and the plates were pre-incubated for 1 hour at 37° C. before stimulating with LPS.
After 1 hour compound pre-incubation, 10 piper well of 20× concentrated LPS solution in RPMI media was added to give a final concentration of 1 μg/ml. The mixture was shaken and incubated the plates at 37° C. for an additional 18 hours.
155 μl of the supernatant was harvested from each well carefully (without the tip touching the bottom of the well) and to the remaining 50 μl/well of the cell culture plate was added 50 μl of Cell Titer Glo reagent. The mixture was incubated for 1-2 minutes on a shaker and the plate was read for luminescence intensity to determine the compound cytotoxicity. The cell culture supernatant collected above was used to carry out IL23 ELISA (65 μl -Supernatant) and IL10 ELISA (90 μl—Supernatant) as described below.
Human IL-23 (p19/p40) ELISA Protocol (e-Biosciences)
To 10.5 ml PBS add 50 μl of anti-IL23 (p19) was added capture antibody (2.5 μg/ml). The mixture was mixed well and 100 μl of the coating solution was added to each well of the 96 well white plates from Pierce. The wells were covered and incubated overnight at 4° C.
The anti-IL23 (p19)-antibody-coated plates were washed 2× using TBST (use plate washer) and blocked using 200 μl of 0.5% Casein for 1.5-2 hours at room temperature with shaking.
The plates were washed 2× using TBST and the supernatant was transferred (65 μl/well) to the above pre-blocked/IL23(p19)-antibody-coated 96 well plate, and incubated at room temperature for 1.5 hours with shaking.
The plates were washed 4× using TBST (plate washer) and 100 μl/well detection antibody solution prepared from 2 μl of biotin labeled anti-IL-12 (p40/p70) antibody in 11 ml 1% BSA/PBS solution (1-5000 dilution) was added. The plates were incubated for 1 hour with shaking at Room temperature.
Again, the plates were washed 4× with TBST and 100 μl of HRP labeled Streptavidin (R&D Systems) solution (10 μl/10 ml 1% BSA solution) was added, and the plates were incubated at room temperature for another 45 minutes with shaking.
After 45 minutes, the plates were washed with TBST 4× and 100 ul/well Super Signal ELISA Pico Chemiluminescent Substrate from Pierce (3.5 ml A+3.5 ml B+3.5 ml MQ water) was added. The plates were shaken for 1-2 minutes then read on a plate reader.

Structure (SMILES): CCCC(=O)N1CC(n2cc(NC(=O)c3ccc(-c4cn[nH]c4)o3)c(-c3ccccn3)n2)C1 [Compound I-99, N-[1-{1-Butyrylazetidin-3-yl}-3-(pyridine-2-yl)-1H-pyrazol-4-yl]-5-(1H-pyrazol-4-yl)furan-2-carboxamide, formate salt]
- pEC50 ([1]; Homo sapiens, THP-1, 18 h): 7.74
- pEC50 ([2]; Homo sapiens, 18 h): 7.81

Structure (SMILES): O=C(Nc1cn([C@H]2C[C@@H](OCC(F)(F)F)C2)nc1-c1cccc(F)n1)c1ccc(-c2cn[nH]c2)o1 [Compound I-150, N-(3-(6-fluoropyridin-2-yl)-1-((1s,3s)-3-(2,2,2-trifluoroethoxy)cyclobutyl)-1H-pyrazol-4-yl)-5-(1H-pyrazol-4-yl)furan-2-carboxamide formate]
- pEC50 ([1]; Homo sapiens, THP-1, 18 h): 7.19
- pEC50 ([2]; Homo sapiens, 18 h): 6.65

Structure (SMILES): Cc1n[nH]cc1-c1ccc(C(=O)Nc2cn(C3COC3)nc2-c2ccccn2)o1 [Compound I-30, 5-(3-methyl-1H-pyrazol-4-yl)-N-(1-(oxetan-3-yl)-3-(pyridin-2-yl)-1H-pyrazol-4-yl)furan-2-carboxamide]
- pEC50 ([1]; Homo sapiens, THP-1, 18 h): 7.42
- pEC50 ([2]; Homo sapiens, 18 h): 7.23

Structure (SMILES): O=C(Nc1cn(CC2CC(O)C2)nc1-c1ccccn1)c1csc(-c2cn[nH]c2)n1 (centres unmarked) [II-123, N-(1-(((1r,3r)-3-hydroxycyclobutyl)methyl)-3-(pyridin-2-yl)-1H-pyrazol-4-yl)-2-(1H-pyrazol-4-yl)thiazole-4-carboxamide]
- pEC50 ([1]; Homo sapiens, THP-1, 18 h): 7.57
- pEC50 ([2]; Homo sapiens, 18 h): 6.83

Structure (SMILES): CCO[C@H]1CC[C@H](n2cc(NC(=O)c3csc(-c4cn[nH]c4)n3)c(-c3ncccc3F)n2)CC1 [II-169, N-(1-((trans)-4-ethoxycyclohexyl)-3-(3-fluoropyridin-2-yl)-1H-pyrazol-4-yl)-2-(1H-pyrazol-4-yl)thiazole-4-carboxamide]
- pEC50 ([1]; Homo sapiens, THP-1, 18 h): 7.38
- pEC50 ([2]; Homo sapiens, 18 h): 6.39

Structure (SMILES): O=C(Nc1cn(Cc2ccccc2)nc1-c1ccccn1)c1csc(-c2cn[nH]c2)n1 [II-120, N-(1-benzyl-3-(pyridin-2-yl)-1H-pyrazol-4-yl)-2-(1H-pyrazol-4-yl)thiazole-4-carboxamide]
- pEC50 ([1]; Homo sapiens, THP-1, 18 h): 6.18
- pEC50 ([2]; Homo sapiens, 18 h): 5.93

Structure (SMILES): CCO[C@H]1C[C@H](n2cc(NC(=O)c3ccc(-c4cn[nH]c4)o3)c(-c3ccccn3)n2)C1 [Compound I-27, N-(1-((1,3-trans)-3-ethoxycyclobutyl)-3-(pyridin-2-yl)-1H-pyrazol-4-yl)-5-(1H-pyrazol-4-yl)furan-2-carboxamide]
- pEC50 ([1]; Homo sapiens, THP-1, 18 h): 6.80
- pEC50 ([2]; Homo sapiens, 18 h): 7.80

Structure (SMILES): CCO[C@H]1C[C@@H](n2cc(NC(=O)c3csc(-c4cn[nH]c4)n3)c(-c3cc(F)ccn3)n2)C1 [II-158, N-(1-((cis)-3-ethoxycyclobutyl)-3-(4-fluoropyridin-2-yl)-1H-pyrazol-4-yl)-2-(1H-pyrazol-4-yl)thiazole-4-carboxamide]
- pEC50 ([1]; Homo sapiens, THP-1, 18 h): 6.84
- pEC50 ([2]; Homo sapiens, 18 h): 7.04

Structure (SMILES): CCO[C@H]1C[C@@H](n2cc(NC(=O)c3csc(-c4cnn(COP(=O)(O)O)c4)n3)c(-c3ccccn3)n2)C1 [II-81, (4-(4-((1-((1,3-cis)-3-ethoxycyclobutyl)-3-(pyridin-2-yl)-1H-pyrazol-4-yl)carbamoyl)thiazol-2-yl)-1H-pyrazol-1-yl)methyl phosphate bis-lysine salt]
- pEC50 [1]: 7.72
- pEC50 [2]: 6.77

Structure (SMILES): CCO[C@H]1C[C@@H](n2cc(NC(=O)c3csc(-c4cn[nH]c4)n3)c(-c3ccccn3)n2)C1 [II-11, N-(1-((1,3-cis)-3-ethoxycyclobutyl)-3-(pyridin-2-yl)-1H-pyrazol-4-yl)-2-(1H-pyrazol-4-yl)thiazole-4-carboxamide]
- pEC50 ([1]; Homo sapiens, THP-1, 18 h): 7.30
- pEC50 ([2]; Homo sapiens, 18 h): 7.21

Structure (SMILES): CC(C)O[C@H]1C[C@@H](n2cc(NC(=O)c3csc(-c4cn[nH]c4)n3)c(-c3ccccn3)n2)C1 [II-76, N-(1-((1,3-cis)-3-isopropoxycyclobutyl)-3-(pyridin-2-yl)-1H-pyrazol-4-yl)-2-(1H-pyrazol-4-yl)thiazole-4-carboxamide]
- pEC50 ([1]; Homo sapiens, THP-1, 18 h): 7.28
- pEC50 ([2]; Homo sapiens, 18 h): 7.32

Structure (SMILES): CCCNC(=O)N1CC(n2cc(NC(=O)c3ccc(-c4cn[nH]c4)o3)c(-c3ccccn3)n2)C1 [Compound I-86, 3-[4-{5-(1H-Pyrazol-4-yl)furan-2-carboxamido}-3-(pyridine-2-yl)-1H-pyrazol-1-yl]-N-propylazetidine-1-carboxamide, free base]
- pEC50 ([1]; Homo sapiens, THP-1, 18 h): 7.21
- pEC50 ([2]; Homo sapiens, 18 h): 7.20

Structure (SMILES): CCO[C@H]1C[C@@H](n2cc(NC(=O)c3csc(-c4c[nH]nc4C)n3)c(-c3ccccn3)n2)C1 [II-92, N-(1-((1,3-cis)-3-ethoxycyclobutyl)-3-(pyridin-2-yl)-1H-pyrazol-4-yl)-2-(3-methyl-1H-pyrazol-4-yl)thiazole-4-carboxamide]
- pEC50 ([2]; Homo sapiens, 18 h): 6.59

Structure (SMILES): Cn1cc(NC(=O)c2ccc(-c3cn[nH]c3)o2)c(-c2ccc(N3CCOCC3)cn2)n1 [Compound I-105, N-(1-methyl-3-(5-morpholinopyridin-2-yl)-1H-pyrazol-4-yl)-5-(1H-pyrazol-4-yl)furan-2-carboxamide]
- pEC50 ([2]; Homo sapiens, 18 h): 7.58

From patent US10208074B2, “Pyrazole compounds and method for making and using the compounds” (Rigel Pharmaceuticals, Inc., priority 2015, dated 2019)
